Test results: US11730720B2, “ALK5 inhibitors” (THERAVANCE BIOPHARMA R&D IP, LLC, priority 2018, dated 2023)

Experiments:
[1] = target: T1, recombinant human ALK5 (TGF-βR1) protein (Homo sapiens, UniProt P36897); assay: Biochemical ALK5 (TGF-βR1) assay to measure pKi (LANCE Ultra ULight kinase assay); settings: apparent pKi, converted from pIC50 using the Cheng-Prusoff equation
T1 construct: purchased Life Technologies PR9075A
T1 sequence (P36897 34-503): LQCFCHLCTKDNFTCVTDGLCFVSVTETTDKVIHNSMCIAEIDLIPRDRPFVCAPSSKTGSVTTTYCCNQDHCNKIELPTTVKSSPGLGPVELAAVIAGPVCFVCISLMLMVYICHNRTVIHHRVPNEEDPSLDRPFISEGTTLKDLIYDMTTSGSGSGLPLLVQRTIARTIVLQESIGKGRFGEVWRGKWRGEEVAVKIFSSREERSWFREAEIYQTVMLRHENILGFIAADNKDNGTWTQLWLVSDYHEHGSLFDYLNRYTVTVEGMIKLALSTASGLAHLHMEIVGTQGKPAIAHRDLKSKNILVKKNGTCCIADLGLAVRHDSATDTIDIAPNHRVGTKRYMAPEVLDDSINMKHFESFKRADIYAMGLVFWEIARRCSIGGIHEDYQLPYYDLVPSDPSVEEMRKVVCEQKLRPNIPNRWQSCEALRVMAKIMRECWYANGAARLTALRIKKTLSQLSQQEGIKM
Experimental: Example 254: Biochemical ALK5 (TGF-βR1) Assay to Measure pKi
The assays were performed in a 384-well plate (24 columns×16 wells/rows). An Echo® 550 Liquid Handler (Labcyte) was used to prepare various intermediate concentrations of compounds of the present disclosure in 100% DMSO. From the intermediate concentrations, a range of concentrations (from 10 μM to 25 pM corresponding to volumes up to 105 nL) were prepared and ejected into a final assay plate to be used to create individual dose response curves for each of the subject compounds. To a separate column within the assay plate, 105 nL of DMSO in each well was used to establish a maximum assay signal. Additionally, 105 nL of 100 μM SD-208, a selective TGF-βR1 inhibitor (Catalog #S7624, Selleck Chemicals), was used in another column of wells to establish a minimal assay signal.
With a multidrop dispenser, 8 μL of enzyme mixture (1.25× final) was added to each well. The enzyme mixture consisted of 250 pM ALK5 enzyme and 62.5 nM peptide substrate (LANCE® (lanthanide chelate excite) Ultra ULight™-DNA Topoisomerase 2-alpha (Thr1342)) prepared in assay buffer (50 mM HEPES, 10 mM MgCl2, 1 mM EGTA, 0.01% Tween-20, pH 7.5 at room temperature) with 2 mM DTT added prior to use. The plate was then sealed with an adhesive seal and allowed to equilibrate for 60 minutes at room temperature.
Next, 2 μL of 125 μM ATP (5× final, 125 μM ATP prepared in assay buffer with 2 mM DTT) was added to the incubated mixtures, covered with a MicroClime® Environmental Lid (Product No. LLS-0310, Labcyte) and immediately transferred to 37° C. The reactions were allowed to proceed at 37° C. for 60 minutes before terminating with the addition of 10 μL of detection antibody (LANCE® (lanthanide chelate excite) Ultra Europium-anti-phospo-DNA Topoisomerase 2-alpha (Thr1342)) in detection mixture (12 mM EDTA, 4 nM detection antibody prepared in detection buffer (50 mM Tris-HCl, 150 mM NaCl, 0.5% BSA (Fraction V), pH 7.0)) at room temperature. The plate was then read on a Perkin Elmer EnVision Plate Reader using europium specific reader settings with excitation and emission wavelengths set to 320 or 340 nm and 665 nm, respectively.
For dose-response analyses, percent inhibition versus compound concentrations were plotted, and pIC50 values were determined from a 4-parameter robust fit model with GraphPad Prism V5 Software (GraphPad Software, Inc., La Jolla, Calif.). This model obtains pIC50 values by fitting the sigmodial dose-response (variable slope) equation to the data. Results were expressed as pIC50 (negative logarithm of IC50) and subsequently converted to pKi (negative logarithm of dissociate constant, K) using the Cheng-Prusoff equation.
The higher the value of pKi (lower value of Ki), the greater the inhibition of ALK5 activity.

[2] = tested on: TGF-β-stimulated SMAD3 phosphorylation in BEAS-2B cells; assay: Cellular ALK5 potency assay, inhibition of TGF-β stimulated pSMAD3 formation in BEAS-2B cells; assay type: cell-based; settings: Homo sapiens, inhibition of TGF-β (10 ng/mL) stimulated pSMAD3 formation, 1 hour compound incubation, read-out: BEAS2B pIC50 (converted)
Experimental: Example 255: Cellular ALK5 Potency Assay to Measure pIC50, Inhibition of TGF-β Stimulated pSMAD3 Formation in BEAS-2B Cells
The potency of compounds of the present disclosure for inhibition of TGF-β-stimulated SMAD3 phosphorylation was measured in BEAS-2B cells, a human lung epithelial cell line. TGF-β signals through activin receptor-like kinase 5 (ALK5) immediately prior to SMAD3 phosphorylation.
BEAS-2B cells were grown using 50% DMEM (Life Technologies) and 50% F-12 (Life Technologies) media, supplemented with 10% Fetal Bovine Serum (ATCC), 25 mM HEPES (Life Technologies), and 1×Pen-Strep (Life Technologies). Cells were cultured in a humidified incubator set at 37° C., 5% CO2, and trypsonized using 0.25% Trypsin with 0.5% polyvinylpyrrolidone (PVP).
For the assay, BEAS-2B cells were seeded at 7,500 cells/well (25 μL/well) in a 384-well plate and cultured overnight. Before dosing, growth media was aspirated and the wells were rinsed with HBSS Buffer (HBSS with Calcium and Magnesium, Life Technologies) supplemented with 25 mM HEPES (Life Technologies) and 1% Bovine Serum Albumin (Roche). Compounds were serially diluted in DMSO, then further diluted with supplemented HBSS Buffer (50 μL/well) to create a compound plate 3× of the final assay concentration, at 0.3% DMSO. The diluted compounds were then added to the cells (8 μL/well) and incubated at 37° C., 5% CO2 for 1 hour. After the compound incubation, TGF-β (R&D Systems) reconstituted in supplemented HBSS Buffer was added to the cells ([…], final concentration 10 ng/mL) and incubated for a further 30 minutes, after which the cells were immediately lysed with AlphaLISA lysis buffer (PerkinElmer). AlphaLISA Acceptor and Detector beads (PerkinElmer) were added 2 hours apart, then incubated overnight to be read the next day. The potency of the compound was determined through analysis of dose-dependent quantified changes in pSMAD3 signal from baseline (non-compound treated TGF-β stimulated cells). Data are expressed as pIC50 (negative decadic logarithm IC50) values.

Row | SMILES | Ki [1] [nM] | IC50 [2] [nM]
1 | Fc1cc(F)c(-c2n[nH]cc2-c2ccc3ncc(-c4nc(C(F)(F)F)n5c4CNCC5)cc3n2)cc1Cl [Compound 6-50, 2-[3-(5-chloro-2,4-difluoro-phenyl)-1H-pyrazol-4-yl]-7-[3-(trifluoromethyl)-5,6,7,8-tetrahydroimidazo[1,5-a]pyrazin-1-yl]-1,5-naphthyridine] | 3.98 to 31.6 | 25.1 to 158
2 | CN(C)C1CCN(c2cnc3ccc(-c4nc[nH]c4-c4cc(Cl)ccc4F)nc3c2)C1 (racemic) [Compound 2-11, rac-(3S)-1-(6-[5-(5-chloro-2-fluoro-phenyl)-1H-imidazol-4-yl]-1,5-naphthyridin-3-yl]-N,N-dimethyl-pyrrolidin-3-amine] | 0.0398 to 0.316 | ≤ 20
3 | Fc1cc(F)c(-c2n[nH]cc2-c2ccc3ncc(-c4cn(Cc5c[nH]cn5)nn4)cc3n2)cc1Cl [Compound 6-62, 7-(1-((1H-imidazol-4-yl)methyl)-1H-1,2,3-triazol-4-yl)-2-(3-(5-chloro-2,4-difluorophenyl)-1H-pyrazol-4-yl)-1,5-naphthyridine] | 0.0398 to 0.316 | 25.1 to 158
4 | CNC1CCN(c2cnc3ccc(-c4c[nH]nc4-c4ccc(F)c(F)c4)nc3c2)CC1 [Compound 8-6, 1-[6-[3-(3,4-difluorophenyl)-1H-pyrazol-4-yl]-1,5-naphthyridin-3-yl]-N-methyl-piperidin-4-amine] | 0.398 to 3.16 | 25.1 to 158
5 | CNCCn1cc(-c2cnc3ccc(-c4c[nH]nc4-c4cc(Cl)ccc4F)nc3c2)nn1 [Compound 1-131, 2-[4-[6-[3-(5-chloro-2-fluoro-phenyl)-1H-pyrazol-4-yl]-1,5-naphthyridin-3-yl]triazol-1-yl]-N-methyl-ethanamine] | 0.0398 to 0.316 | ≤ 20
6 | Fc1ccc(Cl)cc1-c1n[nH]cc1-c1ccc2ncc(-c3cn[nH]c3)cc2c1 [Compound 16-2, 6-[3-(5-chloro-2-fluoro-phenyl)-1H-pyrazol-4-yl]-3-(1H-pyrazol-4-yl)quinoline] | 0.0398 to 0.316 | ≤ 20
7 | CC(C)OC(=O)[C@H]1CN(c2cnc3ccc(-c4c[nH]nc4-c4cc(Cl)ccc4F)nc3c2)CCN1 [Compound 1-68, isopropyl (2R)-4-[6-[3-(5-chloro-2-fluoro-phenyl)-1H-pyrazol-4-yl]-1,5-naphthyridin-3-yl]piperazine-2-carboxylate] | 0.398 to 3.16 | 25.1 to 158
8 | Fc1ccc(Cl)cc1-c1n[nH]cc1-c1ccc2ncc(-c3cnc4n3CCCN4)cc2n1 [Compound 1-124, 2-[3-(5-chloro-2-fluoro-phenyl)-1H-pyrazol-4-yl]-7-(5,6,7,8-tetrahydroimidazo[1,2-a]pyrimidin-3-yl)-1,5-naphthyridine] | 0.0398 to 0.316 | 25.1 to 158
9 | CNCCn1cc(-c2cnc3ccc(-c4nc[nH]c4-c4cccc(COC)c4)nc3c2)cn1 [Compound 15-3, 2-(4-(6-(5-(3-(methoxymethyl)phenyl)-1H-imidazol-4-yl)-1,5-naphthyridin-3-yl)-1H-pyrazol-1-yl)-N-methylethan-1-amine] | 0.0398 to 0.316 | 25.1 to 158
10 | Fc1cc(F)c(-c2n[nH]cc2-c2ccc3ncc(-c4cnc5n4CCNC5)cc3n2)cc1Cl [Compound 6-48, 2-[3-(5-chloro-2,4-difluoro-phenyl)-1H-pyrazol-4-yl]-7-(5,6,7,8-tetrahydroimidazo[1,2-a]pyrazin-3-yl)-1,5-naphthyridine] | 0.398 to 3.16 | 25.1 to 158
11 | Fc1ccc(Cl)cc1-c1n[nH]cc1-c1ccc2ncc(N3CCn4nc(N5CCN(Cc6ccccc6)CC5)nc4C3)cc2n1 [Compound 1-46, 7-[2-(4-benzylpiperazin-1-yl)-6,8-dihydro-5H-[1,2,4]triazolo[1,5-a]pyrazin-7-yl]-2-[3-(5-chloro-2-fluoro-phenyl)-1H-pyrazol-4-yl]-1,5-naphthyridine] | 0.0398 to 0.316 | 25.1 to 158
12 | NC1CCN(c2cnc3ccc(-c4c[nH]nc4-c4ccc(F)c(F)c4)nc3c2)C1 (stereo not drawn) [Compound 8-9, 1-[6-[3-(3,4-difluorophenyl)-1H-pyrazol-4-yl]-1,5-naphthyridin-3-yl]pyrrolidin-3-amine] | 0.398 to 3.16 | 25.1 to 158

The next lines start with results.

Row | Ki [1] [nM] | SMILES | IC50 [2] [nM]
13 | 0.0398 to 0.316 | Fc1ccc(-c2n[nH]cc2-c2ccc3ncc(-c4cn[nH]c4)cc3n2)c(F)c1 [Compound 10-1, 2-(3-(2,4-difluorophenyl)-1H-pyrazol-4-yl)-7-(1H-pyrazol-4-yl)-1,5-naphthyridine] | ≤ 20
14 | 0.0398 to 0.316 | Fc1ccc(Cl)cc1-c1[nH]cnc1-c1ccc2ncc(N3CCn4nc(C5=CCNC5)nc4C3)cc2n1 [Compound 2-14, 2-(5-(5-chloro-2-fluorophenyl)-1H-imidazol-4-yl)-7-(2-(2,5-dihydro-1H-pyrrol-3-yl)-5,6-dihydro-[1,2,4]triazolo[1,5-a]pyrazin-7(8H)-yl)-1,5-naphthyridine] | 200 to 1260
15 | 0.398 to 3.16 | C[C@@H]1CN(CCNc2cnc3ccc(-c4nc[nH]c4-c4cccc(Cl)c4)cc3c2)C[C@H](C)N1 [Compound 24-3, 6-[5-(3-chlorophenyl)-1H-imidazol-4-yl]-N-[2-[(3R,5S)-3,5-dimethylpiperazin-1-yl]ethyl]quinolin-3-amine] | 25.1 to 158
16 | 0.398 to 3.16 | CC(C)N1CCN(CCNc2cnc3ccc(-c4c[nH]nc4-c4cc(Cl)ccc4F)cc3c2)CC1 [Compound 16-5, 6-(3-(5-chloro-2-fluorophenyl)-1H-pyrazol-4-yl)-N-(2-(4-isopropylpiperazin-1-yl)ethyl)quinolin-3-amine] | 25.1 to 158
17 | 0.398 to 3.16 | CNC(=O)C1CN(c2cnc3ccc(-c4c[nH]nc4-c4cc(Cl)ccc4F)nc3c2)CCN1C (racemic) [Compound 1-81, rac-(2S)-4-[6-[3-(5-chloro-2-fluoro-phenyl)-1H-pyrazol-4-yl]-1,5-naphthyridin-3-yl]-N,1-dimethyl-piperazine-2-carboxamide] | –
